# Experimental data: patent US10913744B2, “LRRK2 inhibitors and methods of making and using the same” (Dana-Farber Cancer Institute, Inc., priority 2015, dated 2021)
# Like-named read-outs stand apart in the source and are kept apart here.
# Key:
# [1] = molecular target: EPH-A4 (Homo sapiens (Human), UniProt P54764); assay: Dundee profiling
# [2] = molecular target: DLK (Homo sapiens (Human), UniProt Q12852); assay: KinomeScan; assay type: binding; conditions: 1 uM
# [3] = molecular target: PAK5 (Homo sapiens (Human), UniProt Q9P286); assay: Dundee profiling
# [4] = molecular target: p38g MAPK (Homo sapiens (Human), UniProt P53778); assay: Dundee profiling
# [5] = molecular target: IRAK4 (Homo sapiens (Human), UniProt Q9NWZ3); assay: Dundee profiling
# [6] = molecular target: HIPK3 (Homo sapiens (Human), UniProt Q9H422); assay: Dundee profiling
# [7] = molecular target: EF2K (Homo sapiens (Human), UniProt O00418); assay: Dundee profiling
# [8] = molecular target: YES1 (Homo sapiens (Human), UniProt P07947); assay: Dundee profiling
# [9] = molecular target: PKBb (Homo sapiens (Human), UniProt P31751); assay: Dundee profiling
# [10] = molecular target: MINK1 (Homo sapiens (Human), UniProt Q8N4C8); assay: Dundee profiling
# [11] = molecular target: MARK4 (Homo sapiens (Human), UniProt Q96L34); assay: KinomeScan; assay type: binding; conditions: 1 uM
# [12] = molecular target: ARK5 (Homo sapiens (Human), UniProt O60285); assay: KinomeScan; assay type: binding; conditions: 1 uM
# [13] = molecular target: CDK2-Cyclin A (Homo sapiens (Human), UniProt P24941); assay: Dundee profiling
# [14] = molecular target: NEK6 (Homo sapiens (Human), UniProt Q9HC98); assay: Dundee profiling
# [15] = molecular target: ULK1 (Homo sapiens (Human), UniProt O75385); assay: Dundee profiling
# [16] = molecular target: EPHA5 (Homo sapiens (Human), UniProt P54756); assay: KinomeScan; assay type: binding; conditions: 1 uM
# [17] = molecular target: PIP5K1C (Homo sapiens (Human), UniProt O60331); assay: KinomeScan; assay type: binding; conditions: 1 uM
# [18] = molecular target: CDC2L5 (Homo sapiens (Human), UniProt Q14004); assay: KinomeScan; assay type: binding; conditions: 1 uM
# Excerpt: (§1) The kinase selectivity of Compound 18 was further evaluated by KinomeScan.
# [19] = molecular target: JNK2 (Homo sapiens (Human), UniProt P45984); assay: KinomeScan; assay type: binding; conditions: 1 uM
# [20] = tested on: panel of 451 kinases; assay: KinomeScan panel selectivity; assay type: binding; conditions: 1 μM
# Excerpt: as §1
# [21] = molecular target: MET (Y1235D) (Homo sapiens (Human), UniProt P08581, Y1235D); assay: KinomeScan; assay type: binding; conditions: 1 uM
# [22] = molecular target: BTK (Homo sapiens (Human), UniProt Q06187); assay: Dundee profiling
# [23] = molecular target: CHK1 (Homo sapiens (Human), UniProt O14757); assay: Dundee profiling
# [24] = molecular target: LOK (Homo sapiens (Human), UniProt O94804); assay: KinomeScan; assay type: binding; conditions: 1 uM
# [25] = molecular target: MSK1 (Homo sapiens (Human), UniProt O75582); assay: Dundee profiling
# [26] = molecular target: IKKe (Homo sapiens (Human), UniProt Q14164); assay: Dundee profiling
# [27] = molecular target: MST3 (Homo sapiens (Human), UniProt Q9Y6E0); assay: Dundee profiling
# [28] = molecular target: LRRK2[G2019S] (Homo sapiens (Human), UniProt Q5S007, G2019S); assay: LRRK2 enzyme kinase assay, G2019S; assay type: biochemical; conditions: Table 1; ATP at Km 112 μm
# [29] = molecular target: TGFBR1 (Homo sapiens (Human), UniProt P36897); assay: Dundee profiling
# [30] = molecular target: MAPKAP-K3 (Homo sapiens (Human), UniProt Q16644); assay: Dundee profiling
# [31] = molecular target: LRRK2 (Mus musculus (Mouse), UniProt Q5S006); assay: Pharmacodynamic study, LRRK2 Ser910/Ser935 phosphorylation in mouse kidney, spleen and brain; assay type: in vivo
# [32] = molecular target: MKK6 (Homo sapiens (Human), UniProt P52564); assay: Dundee profiling
# [33] = molecular target: PKBa (Homo sapiens (Human), UniProt P31749); assay: Dundee profiling
# [34] = molecular target: MST4 (Homo sapiens (Human), UniProt Q9P289); assay: Dundee profiling
# [35] = read-out: percent remaining enzymatic activity, I1, 1 μM
# [36] = read-out: percent remaining enzymatic activity, I10
# [37] = read-out: percent remaining enzymatic activity
# Chain of LRRK2 (Q5S006 whole entry, looked up): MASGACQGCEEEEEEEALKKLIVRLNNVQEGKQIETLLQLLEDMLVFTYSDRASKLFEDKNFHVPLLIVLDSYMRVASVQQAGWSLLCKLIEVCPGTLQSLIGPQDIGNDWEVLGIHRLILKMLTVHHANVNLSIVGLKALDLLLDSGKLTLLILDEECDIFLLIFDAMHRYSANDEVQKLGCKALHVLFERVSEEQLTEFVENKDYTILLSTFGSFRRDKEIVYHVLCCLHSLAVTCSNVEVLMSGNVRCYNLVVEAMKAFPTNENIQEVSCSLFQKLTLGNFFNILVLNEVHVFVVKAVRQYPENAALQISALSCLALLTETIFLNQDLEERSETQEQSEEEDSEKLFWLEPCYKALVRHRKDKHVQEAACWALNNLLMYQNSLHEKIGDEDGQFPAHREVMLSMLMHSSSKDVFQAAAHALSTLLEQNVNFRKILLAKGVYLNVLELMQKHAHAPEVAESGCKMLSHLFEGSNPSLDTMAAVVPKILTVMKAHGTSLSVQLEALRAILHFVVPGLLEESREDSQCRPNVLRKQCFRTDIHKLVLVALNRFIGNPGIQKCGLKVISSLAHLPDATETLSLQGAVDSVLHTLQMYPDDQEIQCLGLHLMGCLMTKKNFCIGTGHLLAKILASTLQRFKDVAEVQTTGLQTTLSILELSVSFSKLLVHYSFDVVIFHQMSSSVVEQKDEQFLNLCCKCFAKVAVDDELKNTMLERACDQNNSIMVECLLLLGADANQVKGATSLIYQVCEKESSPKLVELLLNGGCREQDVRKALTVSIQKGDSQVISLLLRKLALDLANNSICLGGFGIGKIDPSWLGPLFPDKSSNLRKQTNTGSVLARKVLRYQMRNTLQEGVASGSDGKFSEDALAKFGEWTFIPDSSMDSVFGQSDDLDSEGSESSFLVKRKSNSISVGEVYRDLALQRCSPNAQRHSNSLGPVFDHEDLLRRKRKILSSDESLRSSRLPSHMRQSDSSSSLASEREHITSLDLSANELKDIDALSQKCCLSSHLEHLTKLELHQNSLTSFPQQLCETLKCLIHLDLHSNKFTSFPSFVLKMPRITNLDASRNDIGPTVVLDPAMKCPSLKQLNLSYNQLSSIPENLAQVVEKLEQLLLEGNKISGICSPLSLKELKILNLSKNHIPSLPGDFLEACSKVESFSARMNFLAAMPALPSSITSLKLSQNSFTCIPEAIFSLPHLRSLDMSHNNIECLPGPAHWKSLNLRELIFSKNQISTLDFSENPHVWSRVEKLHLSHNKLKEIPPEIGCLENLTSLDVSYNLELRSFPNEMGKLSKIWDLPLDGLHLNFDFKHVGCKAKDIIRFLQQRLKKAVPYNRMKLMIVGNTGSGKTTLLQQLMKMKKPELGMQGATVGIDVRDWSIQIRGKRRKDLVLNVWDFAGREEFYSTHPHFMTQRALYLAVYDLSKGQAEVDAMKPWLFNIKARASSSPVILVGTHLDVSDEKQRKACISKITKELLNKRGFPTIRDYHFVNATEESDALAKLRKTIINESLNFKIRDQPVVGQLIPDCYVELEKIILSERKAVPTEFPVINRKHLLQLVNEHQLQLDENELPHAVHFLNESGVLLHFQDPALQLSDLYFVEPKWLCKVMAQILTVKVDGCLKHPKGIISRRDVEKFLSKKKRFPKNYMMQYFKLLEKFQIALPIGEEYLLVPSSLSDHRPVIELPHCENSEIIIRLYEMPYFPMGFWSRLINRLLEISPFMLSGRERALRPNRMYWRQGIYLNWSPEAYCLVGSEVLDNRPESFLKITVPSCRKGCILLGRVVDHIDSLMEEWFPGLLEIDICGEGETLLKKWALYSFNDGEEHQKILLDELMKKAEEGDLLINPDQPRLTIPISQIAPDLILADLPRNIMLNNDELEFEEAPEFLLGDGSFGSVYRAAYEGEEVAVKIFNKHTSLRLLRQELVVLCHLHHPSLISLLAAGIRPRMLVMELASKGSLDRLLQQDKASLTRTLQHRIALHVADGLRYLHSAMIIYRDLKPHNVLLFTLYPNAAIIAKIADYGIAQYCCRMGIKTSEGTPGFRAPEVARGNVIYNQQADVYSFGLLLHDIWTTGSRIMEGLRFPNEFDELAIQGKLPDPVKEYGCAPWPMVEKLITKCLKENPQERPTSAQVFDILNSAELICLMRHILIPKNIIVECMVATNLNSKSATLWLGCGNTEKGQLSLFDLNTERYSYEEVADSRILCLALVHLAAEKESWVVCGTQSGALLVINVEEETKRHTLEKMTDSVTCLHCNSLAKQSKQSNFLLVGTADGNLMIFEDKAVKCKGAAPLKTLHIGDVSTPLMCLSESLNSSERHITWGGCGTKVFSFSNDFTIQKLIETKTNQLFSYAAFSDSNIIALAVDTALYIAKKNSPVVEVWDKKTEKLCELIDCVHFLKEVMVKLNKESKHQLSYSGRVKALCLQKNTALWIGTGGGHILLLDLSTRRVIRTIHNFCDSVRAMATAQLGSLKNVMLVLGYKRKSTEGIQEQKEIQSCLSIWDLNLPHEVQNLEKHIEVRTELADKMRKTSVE
# Chain of IKKe (Q14164 whole entry, species assumed): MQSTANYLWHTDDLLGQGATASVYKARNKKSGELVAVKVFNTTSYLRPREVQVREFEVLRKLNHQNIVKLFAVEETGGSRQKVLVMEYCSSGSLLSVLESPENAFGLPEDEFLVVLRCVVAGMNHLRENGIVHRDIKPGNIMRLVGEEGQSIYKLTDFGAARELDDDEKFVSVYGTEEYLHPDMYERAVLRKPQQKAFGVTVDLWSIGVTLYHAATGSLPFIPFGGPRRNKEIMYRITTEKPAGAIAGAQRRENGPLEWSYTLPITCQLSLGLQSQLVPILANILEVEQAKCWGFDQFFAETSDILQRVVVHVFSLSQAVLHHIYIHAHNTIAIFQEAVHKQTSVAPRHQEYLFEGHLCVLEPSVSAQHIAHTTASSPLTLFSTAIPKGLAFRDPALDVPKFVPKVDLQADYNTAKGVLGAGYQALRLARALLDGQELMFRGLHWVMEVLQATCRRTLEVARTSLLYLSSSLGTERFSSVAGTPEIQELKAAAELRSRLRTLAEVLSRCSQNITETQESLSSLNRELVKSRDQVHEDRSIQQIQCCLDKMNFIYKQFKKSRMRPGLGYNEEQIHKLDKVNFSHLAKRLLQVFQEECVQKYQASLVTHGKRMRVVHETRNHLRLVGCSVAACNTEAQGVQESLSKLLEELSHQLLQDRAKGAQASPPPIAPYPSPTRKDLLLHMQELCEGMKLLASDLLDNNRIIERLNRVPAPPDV
# Chain of p38g MAPK (P53778 whole entry): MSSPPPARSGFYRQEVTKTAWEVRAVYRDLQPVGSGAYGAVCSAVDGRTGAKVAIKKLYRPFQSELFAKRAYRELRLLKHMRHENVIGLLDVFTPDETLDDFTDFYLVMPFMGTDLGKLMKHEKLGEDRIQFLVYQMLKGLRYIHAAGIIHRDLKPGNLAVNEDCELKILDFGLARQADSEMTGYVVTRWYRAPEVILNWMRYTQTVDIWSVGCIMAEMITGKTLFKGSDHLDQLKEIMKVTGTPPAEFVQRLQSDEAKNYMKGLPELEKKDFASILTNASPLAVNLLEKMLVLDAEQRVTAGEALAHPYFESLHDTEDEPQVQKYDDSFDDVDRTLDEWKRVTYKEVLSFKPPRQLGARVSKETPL
# Chain of NEK6 (Q9HC98 whole entry, species assumed): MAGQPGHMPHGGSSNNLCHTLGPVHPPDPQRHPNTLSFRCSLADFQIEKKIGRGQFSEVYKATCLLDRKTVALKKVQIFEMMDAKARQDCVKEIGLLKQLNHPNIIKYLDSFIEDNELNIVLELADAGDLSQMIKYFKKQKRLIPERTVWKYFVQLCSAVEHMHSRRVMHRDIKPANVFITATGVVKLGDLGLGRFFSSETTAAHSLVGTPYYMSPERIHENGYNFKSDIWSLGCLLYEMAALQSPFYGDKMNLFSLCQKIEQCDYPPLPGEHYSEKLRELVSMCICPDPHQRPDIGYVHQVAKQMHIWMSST
# Chain of PKBb (P31751 whole entry): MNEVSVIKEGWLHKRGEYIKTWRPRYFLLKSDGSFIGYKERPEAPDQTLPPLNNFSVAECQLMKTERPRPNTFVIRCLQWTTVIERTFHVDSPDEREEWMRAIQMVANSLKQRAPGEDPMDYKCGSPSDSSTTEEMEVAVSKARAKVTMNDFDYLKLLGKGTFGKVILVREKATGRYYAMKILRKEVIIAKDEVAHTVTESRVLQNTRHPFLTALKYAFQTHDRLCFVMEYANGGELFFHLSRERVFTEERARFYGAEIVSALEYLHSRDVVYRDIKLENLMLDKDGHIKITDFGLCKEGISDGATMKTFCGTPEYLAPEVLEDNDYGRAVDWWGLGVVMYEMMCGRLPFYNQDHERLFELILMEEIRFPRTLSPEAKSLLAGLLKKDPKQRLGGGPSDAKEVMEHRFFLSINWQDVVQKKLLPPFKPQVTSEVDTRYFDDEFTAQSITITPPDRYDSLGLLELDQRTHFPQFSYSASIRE
# Chain of MST4 (Q9P289 whole entry, species assumed): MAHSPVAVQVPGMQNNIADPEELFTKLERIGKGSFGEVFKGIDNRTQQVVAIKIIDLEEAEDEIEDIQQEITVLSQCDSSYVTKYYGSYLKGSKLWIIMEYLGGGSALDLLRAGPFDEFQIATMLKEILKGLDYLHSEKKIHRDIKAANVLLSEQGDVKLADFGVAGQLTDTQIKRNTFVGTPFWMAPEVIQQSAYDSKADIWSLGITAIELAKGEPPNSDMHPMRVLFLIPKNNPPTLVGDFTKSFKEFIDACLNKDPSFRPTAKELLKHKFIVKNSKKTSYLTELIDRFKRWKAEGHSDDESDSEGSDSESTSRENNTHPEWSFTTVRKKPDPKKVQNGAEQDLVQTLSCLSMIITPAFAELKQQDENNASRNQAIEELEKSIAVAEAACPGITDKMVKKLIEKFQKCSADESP
compound,measurement,setting,value
"CNc1nc(Nc2ccc(C(=O)N3CCOCC3)cc2OC)nc2[nH]cc(Cl)c12 [Compound 18, (4-((5-chloro-4-(methylamino)-7H-pyrrolo[2,3-d]pyrimidin-2-yl)amino)-3-methoxyphenyl)(morpholino)methanone]",remaining activity at 1 µM,[1]; [35],107%
same,remaining activity at 1 µM,[1]; [36],102%
same,KinomeScan value,[2],89
same,remaining activity at 1 µM,[3]; [35],89%
same,remaining activity at 1 µM,[3]; [36],70%
same,remaining activity at 1 µM,[4]; [35],116%
same,remaining activity at 1 µM,[4]; [36],96%
same,percent remaining enzymatic activity,[5]; I10,82%
same,remaining activity at 1 µM,[5]; [37],95%
same,remaining activity at 1 µM,[6]; [35],106%
same,remaining activity at 1 µM,[6]; [36],93%
same,remaining activity at 1 µM,[7]; [35],105%
same,remaining activity at 1 µM,[7]; [36],102%
same,percent remaining enzymatic activity,[8]; I10,85%
same,remaining activity at 1 µM,[8]; [37],85%
same,remaining activity at 1 µM,[9]; [35],118%
same,remaining activity at 1 µM,[9]; [36],103%
same,remaining activity at 1 µM,[10]; [35],95%
same,remaining activity at 1 µM,[10]; [36],68%
same,KinomeScan value,[11],82
same,KinomeScan value,[12],89
same,percent remaining enzymatic activity,[13]; I10,67%
same,remaining activity at 1 µM,[13]; [37],102%
same,remaining activity at 1 µM,[14]; [35],101%
same,remaining activity at 1 µM,[14]; [36],83%
same,percent remaining enzymatic activity,[15]; I10,95%
same,remaining activity at 1 µM,[15]; [37],103%
same,KinomeScan value,[16],98
same,KinomeScan value,[17],100
same,KinomeScan value,[18],100
same,KinomeScan value,[19],78
same,"kinase selectivity, interactions detected",[20],no interactions detected with kinases other than LRRK2[G2019S] with the exception of TTK and RPS6KA4
same,KinomeScan value,[21],100
same,percent remaining enzymatic activity,[22]; I10,126%
same,remaining activity at 1 µM,[22]; [37],116%
same,percent remaining enzymatic activity,[23]; I10,93%
same,remaining activity at 1 µM,[23]; [37],110%
same,KinomeScan value,[24],100
same,remaining activity at 1 µM,[25]; [35],109%
same,remaining activity at 1 µM,[25]; [36],99%
same,remaining activity at 1 µM,[26]; [35],114%
same,remaining activity at 1 µM,[26]; [36],98%
same,percent remaining enzymatic activity,[27]; I10,95%
same,remaining activity at 1 µM,[27]; [37],102%
same,IC50,[28],2.2 nM
same,remaining activity at 1 µM,[29]; [35],128%
same,remaining activity at 1 µM,[29]; [36],119%
same,remaining activity at 1 µM,[30]; [35],97%
same,remaining activity at 1 µM,[30]; [36],84%
same,inhibition of LRRK2 Ser935 phosphorylation in brain,[31]; 10 mg/kg,only partial inhibition in brain
same,inhibition of LRRK2 Ser935 phosphorylation in tissues,[31]; 30 mg/kg,near complete inhibition in all tissues
same,"dephosphorylation of Ser935 of LRRK2 in kidney, spleen and brain","[31]; 100 mg/kg, intraperitoneal",near complete dephosphorylation of Ser935 of LRRK2
same,remaining activity at 1 µM,[32]; [35],37%
same,remaining activity at 1 µM,[32]; [36],11%
same,remaining activity at 1 µM,[33]; [35],101%
same,remaining activity at 1 µM,[33]; [36],105%
same,remaining activity at 1 µM,[34]; [35],103%
same,remaining activity at 1 µM,[34]; [36],97%
